Earlier results, collected in patent publication US20100016828A1, “Drug Delivery System and Method” (priority 1995, published 2010).
Each block holds one compound with its values, some of them ahead of it.

Key:
blood-brain barrier = details: hyperosmolar saturated solution of 25% mannitol, intra-arterial infusion for approximately 30 seconds
[1] = intrathecal administration; at 1 hour
[2] = cat brain

Compound: OC[C@@H](O)[C@@H](O)[C@H](O)[C@H](O)CO [mannitol]
period of nonselective entry of substances into the CNS and tumor after blood-brain barrier disruption (blood-brain barrier): approximately 30 minutes

depth of penetration into parenchymal tissue [1]: 3.2 mm
Compound: CN(Cc1cnc2nc(N)nc(N)c2n1)c1ccc(C(=O)N[C@@H](CCC(=O)O)C(=O)O)cc1 [methotrexate]

spread in an anterior-posterior direction ([2]; two hour infusions, immediately after completion of the infusion): ≈ 2.0 cm
Compound: OC[C@H]1O[C@@](CO)(O[C@H]2O[C@H](CO)[C@@H](O)[C@H](O)[C@H]2O)[C@@H](O)[C@@H]1O [sucrose]
distribution into gray matter ([2]; after interstitial infusion): extensively distributed into gray matter by two hours

HpD uptake relative to normal brain tissue (glioblastomas): 30 times
HpD uptake relative to normal tissue (low-grade tumors): 8 times
Compound: hematoporphyrin derivative [HpD]
